Patent US20250215029A1 (Recludix Pharma, Inc., priority 2022, published 2025)
Where two headings read alike, the source gives them in different places.

Experiments:
[1] = biological target: T1, Recombinant STAT6 protein (STAT6 (W123-T658)) (Homo sapiens, UniProt P42226); assay: STAT6 Fluorescence Polarization (FP) Assay; type: binding; conditions: STAT6 (W123-T658) 250 nM, 45-minute incubation, read-out: STAT6 (FP assay IC50 class)
T1 construct: Recombinant STAT6 protein (STAT6 (W123-T658))
T1 sequence (P42226 123-658): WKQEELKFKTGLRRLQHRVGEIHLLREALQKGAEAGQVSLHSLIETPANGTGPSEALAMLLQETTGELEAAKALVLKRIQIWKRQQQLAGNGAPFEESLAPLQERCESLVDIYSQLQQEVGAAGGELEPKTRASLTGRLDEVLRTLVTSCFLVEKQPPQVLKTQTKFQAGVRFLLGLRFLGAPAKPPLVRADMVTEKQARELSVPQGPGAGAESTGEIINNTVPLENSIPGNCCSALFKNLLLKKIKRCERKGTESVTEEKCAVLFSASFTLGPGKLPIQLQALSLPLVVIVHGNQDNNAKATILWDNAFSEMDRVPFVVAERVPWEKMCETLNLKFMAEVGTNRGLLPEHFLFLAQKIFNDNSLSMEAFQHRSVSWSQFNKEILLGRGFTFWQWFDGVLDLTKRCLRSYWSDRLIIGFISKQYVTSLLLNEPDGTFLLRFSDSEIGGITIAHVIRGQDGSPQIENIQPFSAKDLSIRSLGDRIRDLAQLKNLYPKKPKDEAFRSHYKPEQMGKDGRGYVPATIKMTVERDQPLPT
Summary of the method: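 Recombinant STAT6 (W123-T658) at 250 nM mixed with 2 nM 5-FAM phosphotyrosine peptide probe in HEPES pH 7.4 buffer with DTT, 1% DMSO final, added to serially diluted compounds. FP (mP) read after 45 min at room temperature; IC50 by nonlinear regression vs log concentration.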

[2] = biological target: T2, Recombinant STAT3 protein (STAT3 (G127-I722)) (Homo sapiens, UniProt P40763); assay: STAT3 Fluorescence Polarization (FP) Assay; type: binding; conditions: STAT3 (G127-I722) 25 nM, probe 5-FAM-GpYLPQTV-NH2 2 nM, 45-minute incubation; read-out: STAT3 (FP assay IC50 class)
T2 construct: Recombinant STAT3 protein (STAT3 (G127-I722))
T2 sequence (P40763 127-722): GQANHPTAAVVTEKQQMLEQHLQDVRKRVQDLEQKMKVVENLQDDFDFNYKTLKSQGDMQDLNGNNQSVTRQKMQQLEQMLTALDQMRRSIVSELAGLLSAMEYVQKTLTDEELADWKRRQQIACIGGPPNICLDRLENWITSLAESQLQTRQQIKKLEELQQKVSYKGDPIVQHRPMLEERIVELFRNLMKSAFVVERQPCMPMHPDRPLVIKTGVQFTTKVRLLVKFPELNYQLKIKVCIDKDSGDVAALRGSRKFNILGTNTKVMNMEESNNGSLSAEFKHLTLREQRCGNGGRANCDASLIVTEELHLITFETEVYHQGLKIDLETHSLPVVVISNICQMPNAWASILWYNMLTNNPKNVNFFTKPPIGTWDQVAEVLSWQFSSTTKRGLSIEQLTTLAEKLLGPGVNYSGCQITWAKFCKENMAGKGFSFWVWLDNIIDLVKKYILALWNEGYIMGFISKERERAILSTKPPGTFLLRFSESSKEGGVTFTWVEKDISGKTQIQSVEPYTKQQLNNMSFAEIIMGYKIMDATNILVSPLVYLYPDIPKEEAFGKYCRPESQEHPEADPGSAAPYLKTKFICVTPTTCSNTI
Summary of the method: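 Displacement of a fluorescent phosphotyrosine peptide (5-FAM-GpYLPQTV-NH2, 2 nM) from 25 nM recombinant STAT3 G127-I722 was monitored by FP after 45 min at room temperature.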

SMILES | IC50 ([1]; probe 5-FAM-Ap[…]-NH2 2 nM) [µM] | IC50 [2] [µM] | IC50 ([1]; probe 5-FAM-ApYKPFQDLI-NH2 2 nM) [µM]
C[C@@H]1C[C@H]2CC[C@@H](C(=O)N3CC(c4cnccc4N(C)C)C3)N2C(=O)[C@@H](NC(=O)c2cc3cc([C@H](F)P(=O)(O)O)ccc3s2)C1 [Compound 735, ((R)-(2-(((3S,6S,8S,9aR)-3-(3-(4-(dimethylamino)pyridin-3-yl)azetidine-1-carbonyl)-8-methyl-5-oxooctahydro-1H-pyrrolo[1,2-a]azepin-6-yl)carbamoyl)benzo [b]thiophen-5-yl)fluoromethyl) phosphonic acid] | 3 to 30 | < 0.1 | 
C[C@H]1C[C@H]2CC[C@@H](C(=O)N3CC(c4cnccc4N(C)C)C3)N2C(=O)[C@@H](NC(=O)c2cc3cc([C@H](F)P(=O)(O)O)ccc3s2)C1 [Compound 736, ((R)-(2-(((3S,6S,8R,9aR)-3-(3-(4-(dimethylamino)pyridin-3-yl)azetidine-1-carbonyl)-8-methyl-5-oxooctahydro-1H-pyrrolo[1,2-a]azepin-6-yl)carbamoyl)benzo [b]thiophen-5-yl)fluoromethyl) phosphonic acid] | 3 to 30 | < 0.1 | 
C[C@@H]1[C@@H](c2cccnc2)CN1C(=O)[C@@H]1CC[C@@H]2CCC[C@H](NC(=O)c3cc4cc(C(F)P(=O)(O)O)ccc4s3)C(=O)N21 (stereo partly drawn) [Compound 737, (fluoro(2-(((3S,6S,9aS)-3-((2R,3S)-2-methyl-3-(pyridin-3-yl)azetidine-1-carbonyl)-5-oxooctahydro-1H-pyrrolo[1,2-a]azepin-6-yl)carbamoyl)benzo [b]thiophen-5-yl)methyl) phosphonic acid Or (fluoro(2-(((3S,6S,9aS)-3-((2S,3R)-2-methyl-3-(pyridin-3-yl)azetidine-1-carbonyl)-5-oxooctahydro-1H-pyrrolo[1,2-a]azepin-6-yl)carbamoyl)benzo [b]thiophen-5-yl)methyl) phosphonic acid] |  | < 0.1 | 3 to 30
CN(C)c1ncncc1C1CN(C(=O)[C@@H]2CC[C@@H]3CCC[C@H](NC(=O)c4cc5cc(C(F)P(=O)(O)O)ccc5s4)C(=O)N32)C1 (stereo partly drawn) [Compound 739, ((2-(((3S,6S,9aS)-3-(3-(4-(dimethylamino)pyrimidin-5-yl)azetidine-1-carbonyl)-5-oxooctahydro-1H-pyrrolo[1,2-a]azepin-6-yl)carbamoyl)benzo [b]thiophen-5-yl)fluoromethyl) phosphonic acid] | 3 to 30 | < 0.1 | 
Cn1ncc(C2CN(C(=O)[C@@H]3CC[C@@H]4CCC[C@H](NC(=O)c5cc6cc(C(F)P(=O)(O)O)ccc6s5)C(=O)N43)C2)c1C#N (stereo partly drawn) [Compound 743, ((2-(((3S,6S,9aS)-3-(3-(5-cyano-1-methyl-1H-pyrazol-4-yl)azetidine-1-carbonyl)-5-oxooctahydro-1H-pyrrolo[1,2-a]azepin-6-yl)carbamoyl)benzo [b]thiophen-5-yl)fluoromethyl) phosphonic acid] | 3 to 30 | 1 to 10 | 
COc1ccncc1C1CN(C(=O)[C@@H]2CC[C@@H]3C[C@@H](C)C[C@H](NC(=O)c4cc5cc([C@H](F)P(=O)(O)O)ccc5s4)C(=O)N32)C1 [Compound 749, ((R)-fluoro(2-(((3S,6S,8S,9aR)-3-(3-(4-methoxypyridin-3-yl)azetidine-1-carbonyl)-8-methyl-5-oxooctahydro-1H-pyrrolo[1,2-a]azepin-6-yl)carbamoyl)benzo [b]thiophen-5-yl)methyl) phosphonic acid] | 3 to 30 | < 0.1 | 
O=C(N[C@H]1CCC[C@H]2CC[C@@H](C(=O)N3CC(c4cnccc4N4CCOCC4)C3)N2C1=O)c1cc2cc(CP(=O)(O)O)ccc2s1 [Compound 750, ((2-(((3S,6S,9aS)-3-(3-(4-morpholinopyridin-3-yl)azetidine-1-carbonyl)-5-oxooctahydro-1H-pyrrolo[1,2-a]azepin-6-yl)carbamoyl)benzo [b]thiophen-5-yl)methyl) phosphonic acid] | 3 to 30 | < 0.1 | 
Cn1ncc(F)c1C1CN(C(=O)[C@@H]2CC[C@@H]3CCC[C@H](NC(=O)c4cc5cc(C(F)P(=O)(O)O)ccc5s4)C(=O)N32)C1 (stereo partly drawn) [Compound 751, (fluoro(2-(((3S,6S,9aS)-3-(3-(4-fluoro-1-methyl-1H-pyrazol-5-yl)azetidine-1-carbonyl)-5-oxooctahydro-1H-pyrrolo[1,2-a]azepin-6-yl)carbamoyl)benzo [b]thiophen-5-yl)methyl) phosphonic acid] | 3 to 30 | 0.1 to 1 | 
Cn1cc(F)c(C2CN(C(=O)[C@@H]3CC[C@@H]4CCC[C@H](NC(=O)c5cc6cc(C(F)P(=O)(O)O)ccc6s5)C(=O)N43)C2)n1 (stereo partly drawn) [Compound 754, (fluoro(2-(((3S,6S,9aS)-3-(3-(4-fluoro-1-methyl-1H-pyrazol-3-yl)azetidine-1-carbonyl)-5-oxooctahydro-1H-pyrrolo[1,2-a]azepin-6-yl)carbamoyl)benzo [b]thiophen-5-yl)methyl) phosphonic acid] | 3 to 30 | 1 to 10 | 
O=C(N[C@H]1CCC[C@H]2CC[C@@H](C(=O)N3CC(c4cscc4F)C3)N2C1=O)c1cc2cc(C(F)P(=O)(O)O)ccc2s1 (stereo partly drawn) [Compound 757, (fluoro(2-(((3S,6S,9aS)-3-(3-(4-fluorothiophen-3-yl)azetidine-1-carbonyl)-5-oxooctahydro-1H-pyrrolo[1,2-a]azepin-6-yl)carbamoyl)benzo [b]thiophen-5-yl)methyl) phosphonic acid] | 3 to 30 | 0.1 to 1 | 
CC1C[C@H]2CC[C@@H](C(=O)N3CC(c4cccnc4)C3)N2C(=O)[C@@H](NC(=O)c2cc3cc(C(F)(F)P(=O)(O)O)ccc3s2)C1 (stereo partly drawn) [Compound 759, (difluoro(2-(((3S,6S,9aR)-8-methyl-5-oxo-3-(3-(pyridin-3-yl)azetidine-1-carbonyl)octahydro-1H-pyrrolo[1,2-a]azepin-6-yl)carbamoyl)benzo [b]thiophen-5-yl)methyl) phosphonic acid] | 0.3 to 3 | > 10 | 
O=C(N[C@H]1CCC[C@H]2CC[C@@H](C(=O)N3CCC(c4cc[nH]n4)CC3)N2C1=O)c1cc2cc(C(F)P(=O)(O)O)ccc2s1 (stereo partly drawn) [Compound 760, ((2-(((3S,6S,9aS)-3-(4-(1H-pyrazol-3-yl)piperidine-1-carbonyl)-5-oxooctahydro-1H-pyrrolo[1,2-a]azepin-6-yl)carbamoyl)benzo [b]thiophen-5-yl)fluoromethyl) phosphonic acid] | 3 to 30 | 1 to 10 | 
O=C(N[C@H]1CCCC[C@H]2CC[C@@H](C(=O)N3CC(NCC(F)F)(c4ccccn4)C3)N2C1=O)c1cc2cc(C(F)P(=O)(O)O)ccc2s1 (stereo partly drawn) [Compound 761, ((2-(((3S,6S,10aS)-3-(3-((2,2-difluoroethyl)amino)-3-(pyridin-2-yl)azetidine-1-carbonyl)-5-oxodecahydropyrrolo[1,2-a]azocin-6-yl)carbamoyl)benzo [b]thiophen-5-yl)fluoromethyl) phosphonic acid] | 3 to 30 | < 0.1 | 
O=C(N[C@H]1CCC[C@H]2CC[C@@H](C(=O)N3CC(c4cnccc4F)C3)N2C1=O)c1cc2cc(C(F)(F)P(=O)(O)O)ccc2s1 [Compound 762, (difluoro(2-(((3S,6S,9aS)-3-(3-(4-fluoropyridin-3-yl)azetidine-1-carbonyl)-5-oxooctahydro-1H-pyrrolo[1,2-a]azepin-6-yl)carbamoyl)benzo [b]thiophen-5-yl)methyl) phosphonic acid] | 0.3 to 3 | < 0.1 | 
CN1CCN(C(=O)[C@@H]2CC[C@@H]3CCC[C@H](NC(=O)c4cc5cc(C(F)P(=O)(O)O)ccc5s4)C(=O)N32)c2ccccc21 (stereo partly drawn) [Compound 763, (fluoro(2-(((3S,6S,9aS)-3-(4-methyl-1,2,3,4-tetrahydro-quinoxaline-1-carbonyl)-5-oxooctahydro-1H-pyrrolo[1,2-a]azepin-6-yl)carbamoyl)benzo [b]thiophen-5-yl)methyl) phosphonic acid] | 3 to 30 | 1 to 10 | 
COc1ncncc1C1CN(C(=O)[C@@H]2CC[C@@H]3CCC[C@H](NC(=O)c4cc5cc(C(F)P(=O)(O)O)ccc5s4)C(=O)N32)C1 (stereo partly drawn) [Compound 764, (fluoro(2-(((3S,6S,9aS)-3-(3-(4-methoxypyrimidin-5-yl)azetidine-1-carbonyl)-5-oxooctahydro-1H-pyrrolo[1,2-a]azepin-6-yl)carbamoyl)benzo [b]thiophen-5-yl)methyl) phosphonic acid] | 3 to 30 | 0.1 to 1 | 
